The test system of one assay is S. aureus ATCC 13709. The experiment in a line: MIC, antibacterial potency, S. aureus. To be noted: S. aureus. In kind it is cell-based.
The subject of a further assay is S. pneumoniae ATCC 51916. The experiment in a line: MIC, S. pneumoniae. In kind it is cell-based. To be noted: S. pneumoniae.

Converted amounts (≈) assume the structure as drawn.

Turning to `CCOc1nc(Nc2cnc3cccnc3n2)nc2[nH]c(CC)c(Br)c12.Cl.Cl` [700,378], the MIC, SA in the assay with S. aureus ATCC 13709 is above 64 µg/mL. In addition, the MIC Spn52 against S. pneumoniae ATCC 51916 is above 64 µg/mL.

Compound `CCOc1nc(Nc2cnc3c(cnn3C(C)C)c2)nc2[nH]c(CC)c(Br)c12.O=C(O)C(F)(F)F` [700,381] registered an MIC, SA in the assay with S. aureus ATCC 13709 of 1 µg/mL. In the assay on S. pneumoniae ATCC 51916, this compound yielded an MIC Spn52 of 8 µg/mL.

`CCc1[nH]c2nc(Nc3cnc4c(cnn4C(C)C)c3)nc(N3CC(O)C3)c2c1Br` [700,385] registered an MIC, SA with S. aureus ATCC 13709 of 8 µg/mL (≈ 17 µM). The MIC Spn52 in the assay with S. pneumoniae ATCC 51916 is above 64 µg/mL.

In the case of `CCOC(=O)Cn1c(=O)cc(Sc2nc(N3CC(O)C3)c3c(Br)c(CC)[nH]c3n2)[nH]c1=O` [700,386, Ethyl 2-(4-(5-bromo-6-ethyl-4-(3-hydroxyazetidin-1-yl)-7H-pyrrolo[2,3-d]pyrimidin-2-ylthio)-2,6-dioxo-2,3-dihydropyrimidin-1 (6H)-yl)acetate], the MIC, SA in the assay with S. aureus ATCC 13709 was at most 0.5 µg/mL. In addition, the MIC Spn52 against S. pneumoniae ATCC 51916 came to 8 µg/mL (≈ 15.2 µM).

In turn, `CCc1[nH]c2nc(Sc3nc(-c4nnc(C)o4)cs3)nc(N3CC(O)C3)c2c1Cl.Cl.Cl.Cl` [700,387] returned an MIC, SA in the assay on S. aureus ATCC 13709 of 16 µg/mL. Also, in the assay on S. pneumoniae ATCC 51916, the MIC Spn52 is above 64 µg/mL.

Compound `CCOc1nc(Nc2ccc3cccnc3c2)nc2[nH]c(CC)c(Br)c12.O=C(O)C(F)(F)F` [700,388] displayed an MIC, SA in the assay on S. aureus ATCC 13709 of 4 µg/mL. Moreover, the MIC Spn52 against S. pneumoniae ATCC 51916 amounted to 16 µg/mL.

On to `CCOc1nc(Nc2cc(OC)c(OC)c(OC)c2Br)nc2[nH]c(CC)c(Br)c12.O=C(O)C(F)(F)F` [700,389], for which the MIC, SA against S. aureus ATCC 13709 is above 64 µg/mL. In the assay with S. pneumoniae ATCC 51916, the MIC Spn52 is above 64 µg/mL.

`CCc1[nH]c2nc(Sc3cnc4cccnc4n3)nc(N3CC(NC(=O)OCc4ccccc4)C3)c2c1Br` [700,390] returned an MIC, SA with S. aureus ATCC 13709 of at most 0.5 µg/mL. In the assay on S. pneumoniae ATCC 51916, this compound returned an MIC Spn52 of at most 0.5 µg/mL.

`CCc1[nH]c2nc(Sc3nc(C(=O)O)c(Cl)s3)nc(N3CC(O)C3)c2c1Br` [700,391] showed an MIC, SA with S. aureus ATCC 13709 above 64 µg/mL. Moreover, the MIC Spn52 in the assay on S. pneumoniae ATCC 51916 is above 64 µg/mL.

In the assay on S. aureus ATCC 13709, `CCc1[nH]c2nc(Sc3cnc4nccnc4c3)nc(N3CC(O)C3)c2c1Br` [700,392] showed an MIC, SA of at most 0.5 µg/mL. The compound further had an MIC Spn52 against S. pneumoniae ATCC 51916 of at most 0.5 µg/mL.

For `CCc1[nH]c2nc(Sc3cnc4nccnc4c3)nc(N3CC(O)C3)c2c1Cl` [700,393], the MIC, SA with S. aureus ATCC 13709 was at most 0.5 µg/mL. In the assay on S. pneumoniae ATCC 51916, the MIC Spn52 came to 1 µg/mL (≈ 2.42 µM).

`CCc1[nH]c2nc(Sc3nc(C(=O)O)co3)nc(N3CC(O)C3)c2c1Cl.O=C(O)C(F)(F)F.O=C(O)C(F)(F)F` [700,395]: the MIC, SA against S. aureus ATCC 13709 was above 64 µg/mL. This compound returned an MIC Spn52 in the assay on S. pneumoniae ATCC 51916 above 64 µg/mL.

The compound `CCc1[nH]c2nc(Sc3nc(C(=O)O)cs3)nc(N3CCOCC3)c2c1Cl.O=C(O)C(F)(F)F` [700,396] registered an MIC, SA against S. aureus ATCC 13709 above 64 µg/mL. The same compound registered an MIC Spn52 against S. pneumoniae ATCC 51916 above 64 µg/mL.

Consider `CCc1[nH]c2nc(Sc3nc(C(=O)NOC)cs3)nc(N3CCOCC3)c2c1Cl.O=C(O)C(F)(F)F` [700,397], for which the MIC, SA against S. aureus ATCC 13709 is above 64 µg/mL. In addition, the MIC Spn52 against S. pneumoniae ATCC 51916 was above 64 µg/mL.

In the assay with S. aureus ATCC 13709, `CCc1[nH]c2nc(Sc3nc(C(=O)O)cs3)nc(N3CCNCC3)c2c1Cl.O=C(O)C(F)(F)F` [700,398] came in with an MIC, SA above 64 µg/mL. In the assay with S. pneumoniae ATCC 51916, this compound came in with an MIC Spn52 above 64 µg/mL.

`CCc1[nH]c2nc(Sc3cc(=O)n(CC(=O)O)c(=O)[nH]3)nc(N3CC(O)C3)c2c1Br` [700,402] came in with an MIC, SA against S. aureus ATCC 13709 above 64 µg/mL. For the same compound, the MIC Spn52 against S. pneumoniae ATCC 51916 was above 64 µg/mL.

In turn, `CCc1[nH]c2nc(Sc3ccc4c(N5CCNCC5)ccnc4c3)nc(N3CC(O)C3)c2c1Br` [700,403] came in with an MIC, SA against S. aureus ATCC 13709 of 4 µg/mL (≈ 7.4 µM). Besides, the MIC Spn52 against S. pneumoniae ATCC 51916 amounted to 8 µg/mL (≈ 14.8 µM).

Turning to `CCc1[nH]c2nc(Sc3cnc4nccnc4c3)nc(N3CC(NC(=O)OCc4ccccc4)C3)c2c1Br` [700,404], the MIC, SA in the assay on S. aureus ATCC 13709 was at most 0.5 µg/mL. Also, the MIC Spn52 in the assay on S. pneumoniae ATCC 51916 was at most 0.5 µg/mL.

Regarding `CCc1[nH]c2nc(Sc3cnc4c(c3)ncn4CC)nc(N3CC(O)C3)c2c1Br` [700,405], in the assay on S. aureus ATCC 13709, the MIC, SA is at most 0.5 µg/mL. For the same compound, the MIC Spn52 in the assay on S. pneumoniae ATCC 51916 came to 2 µg/mL (≈ 4.22 µM).

Compound `CCOc1nc(Nc2cnc3c(cnn3C(C)C)c2)nc2[nH]c(CC)c(Cl)c12.O=C(O)C(F)(F)F` [700,406] returned an MIC, SA against S. aureus ATCC 13709 of 2 µg/mL. The compound further gave an MIC Spn52 with S. pneumoniae ATCC 51916 of 16 µg/mL.

Regarding `CCc1[nH]c2nc(Sc3nc(C(=O)O)cs3)nc(N(C)C)c2c1Cl.O=C(O)C(F)(F)F` [700,407], the MIC, SA against S. aureus ATCC 13709 was above 64 µg/mL. In the assay with S. pneumoniae ATCC 51916, this compound returned an MIC Spn52 above 64 µg/mL.
